Source: patent US7008636B2, “2,3,5-substituted biphenyls useful in the treatment of insulin resistance and hyperglycemia” (Wyeth, priority 1998, dated 2006)

Tests used:
[1] = target: T1, recombinant, human protein tyrosine phosphatase (PTP) 1B (hPTP1B) (Homo sapiens, UniProt P18031); test: Inhibition of tri-phosphorylated insulin receptor dodecaphosphopeptide dephosphorylation by hPTP1B; format: biochemical; details: 50 μM IR triphosphopeptide substrate, 5 min preincubation and 5 min reaction at 37° C., malachite green-ammonium molybdate phosphate detection
T1 construct: made in house
T1 sequence (P18031 1-435): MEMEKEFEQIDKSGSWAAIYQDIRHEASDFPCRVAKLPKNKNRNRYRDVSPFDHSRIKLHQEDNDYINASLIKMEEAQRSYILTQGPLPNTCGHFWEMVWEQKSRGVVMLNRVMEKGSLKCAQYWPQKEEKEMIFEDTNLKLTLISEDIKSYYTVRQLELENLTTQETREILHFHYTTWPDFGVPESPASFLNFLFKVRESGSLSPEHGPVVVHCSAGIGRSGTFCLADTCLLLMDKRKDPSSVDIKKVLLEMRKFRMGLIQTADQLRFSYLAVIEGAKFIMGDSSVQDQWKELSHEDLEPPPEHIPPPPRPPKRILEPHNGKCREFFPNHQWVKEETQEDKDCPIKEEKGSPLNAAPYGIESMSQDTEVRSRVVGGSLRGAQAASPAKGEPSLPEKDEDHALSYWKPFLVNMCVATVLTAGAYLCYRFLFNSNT

Compound | melting point | IC50 [1] [nM]
CCCCOc1cc(-c2ccccc2)c(OCC(=O)O)c(-c2ccccc2)c1 [Example 44, (5′-Butoxy-[1,1′;3′,1″]terphenyl-2′-yloxy)acetic acid] | 92 to 94 °C | 
O=C(O)COc1c(Br)cc(C(=O)NCCc2ccccn2)cc1-c1cccc(Cl)c1 [Example 56, [3-Bromo-3′-chloro-5-(2-pyridin-2-yl-ethylcarbamoyl)-biphenyl-2-yloxy]acetic acid] | > 102 °C (dec.) | 
O=C(O)COc1c(-c2ccccc2)cc(C(=O)NCCCCCCCCc2ccccc2)cc1-c1cc(Cl)cc(Cl)c1 [Example 27, [3,5-Dichloro-5′-(8-phenyl-octylcarbamoyl)-[1,1′;3′,1″]terphenyl-2′-yloxy]-acetic acid] | 82 to 83.1 °C | 
CCCCCCCCCCCCNC(=O)c1cc(Br)c(OCCn2cnnn2)c(-c2cccc(OC)c2)c1 [Example 138, 5-Bromo-6-(2-tetrazol-1-yl-ethoxy)-3′-methoxy-biphenyl-3-carboxylic acid dodecylamide] | 100 to 101 °C | 
O=C(O)COc1c(Br)cc(C(=O)NCCCC2CCCC2)cc1-c1ccccc1F [Example 75, [3-Bromo-5-(3-cyclopentyl-propylcarbamoyl)-2′-fluoro-biphenyl-2-yloxy]acetic acid] | > 127 °C (dec.) | 
COc1ccc(-c2cc(C(=O)NCCCCCCCCc3ccccc3)cc(-c3ccccc3F)c2OCC(=O)O)cc1 [Example 76, [2-Fluoro-4″-methoxy-5′-(8-phenyl-octylcarbamoyl)-[1,1′;3′,1″]-terphenyl-2′-yloxy]acetic acid] | > 84 °C (dec.) | 
O=C(O)COc1c(-c2cccc(Cl)c2)cc(C(=O)NCCCCc2ccccc2)cc1-c1cccc(Cl)c1 [Example 54, [3,3″-Dichloro-5′-(4-phenyl-butylcarbamoyl)-[1,1′;3′,1″]terphenyl-2′-yloxy]acetic acid] | > 164 °C (dec.) | 
CN(CCCCCCCCc1ccccc1)C(=O)c1cc(-c2ccccc2F)c(OCC(=O)O)c(-c2ccccc2F)c1 [Example 118, {2,2″-Difluoro-5′-[methyl-(8-phenyl-octyl)-carbamoyl]-[1,1′;3′,1″]terphenyl-2′-yloxy}-acetic acid] |  | 423
Cc1cc(C)cc(-c2cc(C(=O)NCCCCCCCCc3ccccc3)cc(-c3cc(C)cc(C)c3)c2OCC(=O)O)c1 [Example 141, [3,5,3″,5″-Tetramethyl-5′-(8-phenyl-octylcarbamoyl)-[1,1′:3′,1″]terphenyl-2′-yloxy]acetic acid] |  | 71
COc1cc(COc2c(Br)cc(C(=O)NCCCCCCCCc3ccccc3)cc2-c2cccc(C(F)(F)F)c2)ccc1C(=O)O [Example 204, 4-[3-Bromo-5-(8-phenyl-octylcarbamoyl)-3′-trifluoromethyl-biphenyl-2-yloxymethyl]-2-methoxy-benzoic acid] |  | 73
O=C(NCCCCCCCCc1ccccc1)c1cc(Br)c(OS(=O)(=O)c2ccc(C(=O)O)c(O)c2)c(-c2cccc(C(F)(F)F)c2)c1 [Example 195, 4-[3-Bromo-5-(8-phenyl-octylcarbamoyl)-3′-trifluoromethyl-biphenyl-2-yloxysulfonyl]-2-hydroxy-benzoic acid] |  | 73
CCCCCCCCCCCCNC(=O)c1cc(Br)c(OCC(=O)O)c(-c2ccc(OC)cc2)c1 [Example 31, (3-Bromo-5-dodecylcarbamoyl-4′-methoxy-biphenyl-2-yloxy)-acetic acid] |  | 203
Ammonium molybdate tetrahydrate [reference compound] |  | 8700
CCCCCCCCCCOc1cc(-c2ccccc2)c(OCC(=O)O)c(-c2ccccc2)c1 [Example 172, (5′-Decyloxy-[1,1′;3′,1″]terphenyl-2′-yloxy)acetic acid] |  | 154
CCCCCCCCCCCCNC(=O)c1cc(Br)c(OCC(=O)O)c(-c2ccc(F)c(Cl)c2)c1 [Example 135, (3-Bromo-3′-chloro-5-dodecylcarbamoyl-4′-fluoro-biphenyl-2-yloxy)acetic acid] |  | 130
CN(CCCCCCCCc1ccccc1)C(=O)c1cc(Br)c(OCC(=O)O)c(-c2cccc(C(F)(F)F)c2)c1 [Example 212, {3-Bromo-5-[methyl-(8-phenyl-octyl)-carbamoyl]-3′-trifluoromethyl-biphenyl-2-yloxy]-acetic acid] |  | 272
O=C(O)CCCCCCOc1c(-c2cccc(C(F)(F)F)c2)cc(C(=O)NCCCCCCCCc2ccccc2)cc1-c1cccc(C(F)(F)F)c1 [Example 196, 7-[5′-(8-Phenyl-octylcarbamoyl)-3,3″-bistrifluoromethyl-[1,1′;3′,1″]terphenyl-2′-yloxy]-heptanoic acid] |  | 150

Compound | melting point | IC50 [1] [nM]
O=C(NCCCCCCCCc1ccccc1)c1cc(-c2cccc(C(F)(F)F)c2)c(OCCNc2c(O)c(=O)c2=O)c(-c2cccc(C(F)(F)F)c2)c1 [Example 197] |  | 99
CCCCCCCCCCCCNC(=O)c1cc(-c2cccc(C(F)(F)F)c2)c(OCC(=O)O)c(-c2ccccc2F)c1 [Example 109, (5′-Dodecylcarbamoyl-2″-fluoro-3-trifluoromethyl-[1,1′;3′,1″]terphenyl-2′-yloxy)-acetic acid] |  | 187
O=C(O)COc1c(-c2cccc(Cl)c2)cc(C(=O)NCCCCCCCCCCCCOc2ccc(F)cc2F)cc1-c1cccc(Cl)c1 [Example 121, {3,3″-Dichloro-5′-[12-(2,4-difluoro-phenoxy)-dodecylcarbamoyl]-[1,1′;3′,1″]terphenyl-2′-yloxy}-acetic acid] |  | 15
O=C(O)COc1c(-c2cccc(Cl)c2)cc(C(=O)NCCCCCCO)cc1-c1cccc(Cl)c1 [Example 167, [3,3″-Dichloro-5′-(6-hydroxy-hexylcarbamoyl)-[1,1′:3′,1″]terphenyl-2′-yloxy]acetic acid] |  | 231
O=C(NCCCCCCCCc1ccccc1)c1cc(-c2cccc(C(F)(F)F)c2)c(OS(=O)(=O)c2ccc(C(=O)O)c(O)c2)c(-c2cccc(C(F)(F)F)c2)c1 [Example 203, 2-Hydroxy-4-[5′-(8-phenyl-octylcarbamoyl)-3,3″-bis-trifluoromethyl-[1,1′:3′1″]terphenyl-2′-yloxysulfonyl]-benzoic acid] |  | 50
O=C(NCCCCCCCc1ccccc1)c1cc(-c2cccc(C(F)(F)F)c2)c(OCc2ccc(S(=O)(=O)O)cc2)c(-c2cccc(C(F)(F)F)c2)c1 [Example 130, 4-[5′-(7-Phenyl-heptylcarbamoyl)-3,3″-bis-trifluoromethyl-[1,1′3′,1″]terphenyl-2′-yloxymethyl]-benzenesulfonic acid] |  | 56
CCCCCCCCOc1cc(-c2cccc(OC)c2)c(OCC(=O)O)c(-c2cccc(OC)c2)c1 [Example 50, (3,3″-Dimethoxy-5′-octyloxy-[1,1′;3′,1″]terphenyl-2′-yloxy)acetic acid] |  | 254
[[5′-[4-[[(7-Phenylheptyl)amino]carbonyl]phenyl]-3,3′-bis(trifluoromethyl)[1,1′:3′,1′-terphenyl]-2′-yl]oxy]acetic acid [Example 132] |  | 84
O=C(NCCCCCCCc1ccccc1)c1cc(-c2cccc(C(F)(F)F)c2)c(OCP(=O)(O)O)c(-c2cccc(C(F)(F)F)c2)c1 [Example 128, [5′-(7-Phenyl-heptylcarbamoyl)-3,3″-bis-trifluoromethyl-[1,1′:3′,1″]terphenyl-2′-yloxymethyl]-phosphonic acid] |  | 264
O=C(O)COc1c(-c2ccccc2F)cc(C(=O)NCCCCCCCCc2ccccc2)cc1-c1ccccc1F [Example 111, [2,2″-Difluoro-5′-(8-phenyl-octylcarbamoyl)-[1,1′;3′,1″]terphenyl-2′-yloxy)-acetic acid] |  | 700
CN(CCCCCCCCc1ccccc1)C(=O)c1cc(-c2ccc(F)c(Cl)c2)c(OCC(=O)O)c(-c2ccc(F)c(Cl)c2)c1 [Example 213, {3,3″-Dichloro-4,4″difluoro-5′-[methyl-(8-phenyl-octyl)-carbamoyl]-[1,1′;3′1″]terphenyl-2′yloxy}-acetic acid] |  | 198
O=C(NCCCCCCCCc1ccccc1)c1cc(-c2cccc(C(F)(F)F)c2)c(OCCOc2ccc(C(=O)O)c(O)c2)c(-c2cccc(C(F)(F)F)c2)c1 [Example 211, 2-Hydroxy-4-{2-[5′-(8-phenyl-octylcarbamoyl)-3,3″-bis-trifluoromethyl-[1,1′:3′,1″]terphenyl-2′-yloxy]-ethoxy}-benzoic acid] |  | 60
O=C(O)CCCCOc1c(-c2cccc(C(F)(F)F)c2)cc(C(=O)NCCCCCCCCc2ccccc2)cc1-c1cccc(C(F)(F)F)c1 [Example 192] |  | 107
CCCCCCCCCCCCNC(=O)c1cc(Br)c(OCC(=O)O)c(-c2cccc(Cl)c2)c1 [Example 2, (3-Bromo-3′-chloro-5-dodecylcarbamoyl-biphenyl-2-yloxy)acetic acid] |  | 183
CCCCCCCCCCCCNC(=O)c1cc(-c2cccc(Cl)c2)c(OCCOCC(=O)O)c(-c2cccc(Cl)c2)c1 [Example 12] |  | 15
O=C(NCCCCCCCCc1ccccc1)c1cc(-c2cccc(C(F)(F)F)c2)c(OCc2nnn[nH]2)c(-c2cccc(C(F)(F)F)c2)c1 [Example 206, 2′-(1H-Tetrazol-5-ylmethoxy)-3,3″-bis-trifluoromethyl-[1,1′:3′1″]terphenyl-5′-carboxylic acid (8-phenyl-octyl)-amide] |  | 286
O=C(O)COc1c(-c2cccc(Cl)c2)cc(C(=O)N(C2CCCCC2)C2CCCCC2)cc1-c1cccc(Cl)c1 [Example 124, (3,3″-Dichloro-5′-dicyclohexylcarbamoyl-[1,1′;3′,1″]terphenyl-2′-yloxy)-acetic acid] |  | 595
